# Assay results published in patent US8791163B2 (McGill University, priority 2006, dated 2014).
# Values joined by “and” are separate entries in the source; they are usually repeats but may differ in a detail not shown here. Equal entries are not always repeated. “Also recorded” adds a separate entry of the source. Where two headings read alike, the source gives them in different places.
# Experiments:
# [1] = target: T1, cloned human MT1 receptors (Homo sapiens, UniProt P48039); assay: 2-[125I]iodomelatonin competition binding, human MT1 in NIH3T3 cells; conditions: calculated from IC50 by Cheng-Prusoff, mean of at least three determinations
# T1 construct: expressed in transfected cells
# T1 sequence (P48039 whole entry): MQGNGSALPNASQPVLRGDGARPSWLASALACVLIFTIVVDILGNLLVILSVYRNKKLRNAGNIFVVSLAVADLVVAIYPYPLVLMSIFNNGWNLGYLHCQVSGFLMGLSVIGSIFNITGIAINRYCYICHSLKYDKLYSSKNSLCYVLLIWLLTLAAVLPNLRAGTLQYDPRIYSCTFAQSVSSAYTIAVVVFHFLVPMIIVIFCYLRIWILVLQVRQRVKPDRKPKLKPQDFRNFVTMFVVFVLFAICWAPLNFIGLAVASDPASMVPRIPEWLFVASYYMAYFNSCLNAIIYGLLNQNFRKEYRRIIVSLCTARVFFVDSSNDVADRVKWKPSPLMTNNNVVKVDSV
# Procedure: (§1) Membranes were incubated for 90 min at 37° C. in binding buffer (Tris/HCl 50 mM, pH 7.4). The final membrane concentration was 5-10 μg of protein per tube. […] The pKi values are the mean of at least three independent determinations performed in duplicate. To define the functional activity of the compounds of Formula (I) at the MT1 and MT2 receptor subtypes, [^35S]GTPγS binding assays in NIH3T3 cells expressing human-cloned MT1 or MT2 receptors were performed. The amount of bound [^35S]GTPγS is proportional to the level of analogue-induced G-protein activation and is related to the intrinsic activity of the compound (i.e. a compound of Formula (I)) under study. […] Nonspecific binding was assessed using non-radiolabeled GTPγS (10 μM). […] Basal stimulation is the amount of [^35S]GTPγS specifically bound in the absence of the compounds of Formula (I) and was taken as 100%. […] All of the measurements were performed in triplicate.
# [2] = target: T2, cloned human MT2 receptors (Homo sapiens, UniProt P49286); assay: 2-[125I]iodomelatonin competition binding, human MT2 in NIH3T3 cells; conditions: human MT2 in NIH3T3 cells; calculated from IC50 by Cheng-Prusoff; mean of at least three determinations
# T2 construct: expressed in transfected cells
# T2 sequence (P49286 1-362): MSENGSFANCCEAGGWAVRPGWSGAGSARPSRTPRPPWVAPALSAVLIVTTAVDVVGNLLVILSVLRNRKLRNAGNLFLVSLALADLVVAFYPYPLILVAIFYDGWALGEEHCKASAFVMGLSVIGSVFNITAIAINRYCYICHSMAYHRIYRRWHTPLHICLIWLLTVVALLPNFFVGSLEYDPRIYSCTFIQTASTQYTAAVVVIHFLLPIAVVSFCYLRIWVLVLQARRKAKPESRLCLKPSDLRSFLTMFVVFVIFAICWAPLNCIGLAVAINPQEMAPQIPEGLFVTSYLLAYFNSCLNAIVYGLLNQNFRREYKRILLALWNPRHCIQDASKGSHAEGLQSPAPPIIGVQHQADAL
# Procedure: as §1
# [3] = target: T1, cloned human MT1 receptors; assay: [35S]GTPγS binding assay, NIH3T3 cells expressing human MT1; type: biochemical; conditions: for MT1 IAr ± SEM (relative intrinsic activity): maximal net effect relative to MLT; for MT1 Activity: key: A = agonist; PA = partial agonist; ANT = antagonist; IA = Inverse agonist
# Procedure: as §1
# [4] = target: T2, cloned human MT2 receptors; assay: [35S]GTPγS binding assay, NIH3T3 cells expressing human MT2; type: biochemical; conditions: maximal net effect relative to MLT
# Procedure: as §1
# [5] = tested on: Adult Sprague Dawley rats; assay: Elevated plus maze (EPM); type: in vivo, rat; conditions: diazepam 2 mg/kg, injected 45 min before test
# Procedure: The maze is comprised of two open arms (50×10 cm) and two closed arms (50×10×40 cm) that extend from a common central platform (10×10 cm). The apparatus, made of wood (painted black) was elevated to a height of 80 cm above floor level. The closed arms are located opposite one another. Behavior is recorded over a period of 5 min using a video camera positioned directly above the maze and rated by an observer blind to drug conditions. The major measure of interest is the amount of time spent in the open arms. As an index of general activity and distribution, the total number of entries into both open and closed arms was also recorded. […] In order to increase the sensitivity of this test to anxiolytic activity, tests are carried out under normal room illumination (25 W bulb).
# Sprague Dawley rats = assay: Novelty-Induced Suppressed Feeding (NSF) Test; type: in vivo, rat; conditions: diazepam 2 mg/kg s.c., 45 min before the test
# Procedure: The NSF test is used to assess the anti-anxiety effect of a drug [Bodnoff et al. Psychopharmacology 1988, 95(3), 298-307]. Sprague Dawley rats were used in the NSF test. The testing apparatus comprises a brightly lit open area covered with lab chow pellets. Forty-eight hours prior to behavioral testing, all food was removed from the apparatus. Animals treated with compound 5b (40 or 80 mg/kg) were injected 60 min before the test, whereas animals treated with vehicle (DMSO/saline 7:3) or diazepam were injected 45 min before the test. The drugs were administered subcutaneously and the experiments were conducted after 5:30 PM. The latency to feed, defined as chewing the food as opposed to merely sniffing or playing with a pellet, was then recorded (Table 6). The experiment was terminated for those animals that had not begun eating within a period of 360 seconds, which animals were assigned a latency score of 360 seconds. All analyses were conducted using Sigma Stats and SPSS software. The results are expressed as the mean±SEM per n (number) animals tested (*, p<0.01, ANOVA or t test).
# [6] = tested on: Male rats (Sprague-Dawley); assay: EEG and EMG sleep recordings (slow wave sleep, REM sleep, wakefulness); type: in vivo, rat
# Procedure: Male rats (Sprague-Dawley) weighing approximately 300-340 g were used for surgical implantation of electroencephalogram (EEG) and electromyogram (EMG) electrodes. Following the recovery from surgery, the animals were housed separately in cages and kept on a 12-hour light/dark cycle (12 h light-12 h dark, 7:30 AM lights on) at a controlled temperature (21° C.). The rats had free access to food and water ad libitum.
# Rats were anaesthetized using equithesin (425 mg chloral hydrate, 1 ml 100% ethanol, 98 mg pentobarbitone, 213 mg magnesium sulphate and 3 ml propylene glycol, sterile water per 10 ml of solution; 1 ml per 300 g body weight i.p.) and placed in a stereotactic frame. The skull was exposed and carefully cleaned. Two stainless-steel epidural electrodes were implanted for the registration of the EEG under stereotactic control, through 1.5 mm burr holes at the coordinates corresponding to the right parietal-occipital cortex (AP=−2 mm L=3 mm; AP=−7 mm L=3 mm) and the left parietal-occipital cortex (AP=−4.5 mm L=3 mm) according to the atlas by Paxinos (The Rat Brain in Stereotaxic Coordinates, Academic Press, 1995). Three stainless steel wire electrodes, isolated except for the last few millimeters, were implanted into the neck muscles (two bilaterally and one in the middle) for the monitoring of the EMG. The EEG epidural electrodes and the EMG wires were fitted to a six-pin female connector. For fixation to the skull, the wires and connector were covered with dental acrylic (Coltene/Whaledent Inc. USA). The animals were allowed to recover from the surgery for at least 3-4 days.
# Twenty-four hours (24 h) following the surgery, the rats were placed in the recording room from noon to 9:00 PM, for 3-4 days. The rats were connected to the 6-flat cable (3M), in a freely-moving manner, from 6:00 PM to 9:00 PM for habituation. No recordings were performed at this time, however, the tolerance to the cable and the sleep behavior were observed.
# Following 3-4 days of habituation, the rats received the injection of a vehicle (DMSO/saline 7:3, 0.2 ml s.c.) at 6:00 PM and the recording was carried out until 9:00 PM. On the following day the rats received diazepam (2 mg/kg, s.c.) at 6:00 PM and the recording was performed until 9:00 PM. Four days following the injection of diazepam, the rat received 5b (40 mg/kg s.c.) and the recording also performed from 6 to 9 PM.
# For each experiment, a rat was placed individually in the cage and monitoring of the signal was carried out via the attachment of a non-restraining 6-wire flat cable and a female connector, which was connected to an impedance transformer with a gain of 10, located above the cage. The EEG signal was amplified (resulting in a total gain of 10,000) and locally filtered. The EMG signal was amplified as the EEG, (EEG: low filter 1.0 Hz; high 1 KHz, EMG: low filter 30.0 Hz; high 3 KHz). The power spectra analysis was performed for identification of the sleep stages. The behavior of the animals was observed during the experiment (eye movements, ambulation, rearing etc.).
# The three classical vigilance-sleep states described in the rat were discriminated on the basis of the cortical EEG and neck EMG, following the classification by Ruigt et al. (Electroencephalography and clinical Neurophysiology, 1989, 73: 52-63). Wakefulness was identified by a low-amplitude and desynchronized EEG with sustained EMG activity. Slow wave sleep (SWS, includes Quiet sleep, deep sleep and Pre-REM) was clearly distinguished by high-voltage delta waves (2-4 Hz) and spindles associated with a […] EMG activity. Pre-REM sleep was characterized by a clear theta rhythm in the EEG, frequently alternating with short lasting, high voltage spindles. REM sleep was characterized by a low-amplitude EEG with a pronounced theta rhythm (5.5-8.5 Hz), a complete loss of muscle tone, and a low voltage EMG. […]
# [7] = diazepam 2 mg/kg s.c., Mean ± SEM of 11 rats
# [8] = diazepam 2 mg/kg s.c., Mean ± SEM of 11 rats, listed as diazepam
# [9] = diazepam 2 mg/kg s.c., individual rats 1-11
smiles,measurement,setting,value
"CCCC(=O)NCCN(c1ccccc1)c1cccc(OC)c1 [5n, N-{2-[(3-Methoxyphenyl)-phenylamino]ethyl}butanamide]",MT1 pKi,[1],8.38 ± 0.01
same,MT2 pKi,[2],9.98 ± 0.26
same,MT1 IAr ± SEM (relative intrinsic activity),[3],1.01 ± 0.04
same,MT2 IAr ± SEM (relative intrinsic activity),[4],0.73 ± 0.02
same,melting point,,50 to 52 °C
"CC(=O)NCCN(c1ccccc1)c1ccccc1 [5a, N-[2-(diphenylamino)ethyl]acetamide]",MT1 pKi,[1],6.90 ± 0.04
same,MT2 pKi,[2],8.41 ± 0.13
same,MT1 Activity,[3],ANT
same,MT1 IAr ± SEM (relative intrinsic activity),[3],0.10 ± 0.03
same,MT2 IAr ± SEM (relative intrinsic activity),[4],0.57 ± 0.04
same,melting point,,44 to 45 °C
"COc1cccc(N(C)CCNC(C)=O)c1 [5j, N-{2-[(3-Methoxyphenyl)-methylamino]ethyl}acetamide]",MT1 pKi,[1],9.09 ± 0.10
same,MT2 pKi,[2],9.19 ± 0.01
same,MT1 IAr ± SEM (relative intrinsic activity),[3],0.95 ± 0.08
same,MT2 IAr ± SEM (relative intrinsic activity),[4],1.06 ± 0.05
same,melting point,,69 to 71 °C
CN1C(=O)CN=C(c2ccccc2)c2cc(Cl)ccc21 [Diazepam],Head Dips,[5],11.37 ± 2.12 (P = 0.01)
same,Percentage of time in Closed Arms,[5],67.75 ± 5.87 (P = 0.007) %
same,Percentage of time in Open Arms,[5],32.25 ± 5.9 (P = 0.006) %
same,Total time duration in the Closed Arms,[5],178.71 ± 18.16 (P = 0.006) sec/closed arm
same,Total time duration in the Open Arms,[5],122.0 ± 18.0 (P = 0.008) sec/open arm
same,Head Dips,[5]; listed as diazepam,increase in the number of head dips
same,Latency (sec) to feed,Sprague Dawley rats,36.10 ± 15.32 (P ≦ 0.001)* sec
same,Latency (sec) to feed,Sprague Dawley rats; listed as diazepam,decreased latency to feed
same,Slow Wave Sleep Duration,[6],58.45 min and 89.15 min and 84 min and 105.18 min and 99.03 min and 103.14 min and 92.36 min and 114.55 min and 94.85 min and 88.22 min and 83.9 min
same,Slow Wave Sleep Latency,[6],18.02 min and 3.98 min and 8.25 min and 2.86 min and 6.93 min and 3.06 min and 18.42 min and 13.59 min and 22.5 min and 6.51 min and 26.36 min
same,Wakefulness Duration,[6],69.58 min and 73.27 min and 68.04 min and 83.4 min and 62.00 min and 82.58 min and 85.76 min and 66.32 min and 115.52 min and 71.04 min and 80.79 min
same,REM Sleep Duration,[6]; [7],6.5 ± 0.7 min
same,REM Sleep Latency,[6]; [7],74.5 ± 5.2 min
same,REM Sleep Mean of a Single Episode,[6]; [7],1.43 ± 0.11 min
same,REM Sleep Number (episodes),[6]; [7],4.6 ± 0.5 episodes
same,Slow Wave Sleep Duration,[6]; [7],92.0 ± 4.4 min
same,Slow Wave Sleep Mean of a Single Episode,[6]; [7],5.4 ± 0.38 min
same,Slow Wave Sleep Number (episodes),[6]; [7],18.0 ± 1.6 episodes
same,Wakefulness Duration,[6]; [7],78.2 ± 4.43 min
same,Wakefulness Mean of a Single Episode,[6]; [7],2.7 ± 0.84 min
same,Wakefulness Number (episodes),[6]; [7],17.0 ± 1.52 episodes
same,REM Sleep Duration (min),[6]; [8],significantly decreases
same,REM Sleep Latency (min),[6]; [8],significantly increases
same,REM Sleep Number (episodes),[6]; [8],significantly decreases
same,Slow Wave Sleep Duration (min),[6]; [8],increase the duration of the SWS; also recorded: significantly increases
same,Slow Wave Sleep Latency (min),[6]; [8],significantly decreases
same,Slow Wave Sleep Mean of a Single Episode (min),[6]; [8],significantly increase
same,Slow Wave Sleep Number (episodes),[6]; [8],no influence
same,Wakefulness Duration (min),[6]; [8],significantly decreases
same,Wakefulness Number (episodes),[6]; [8],no influence
same,REM Sleep Duration,[6]; [9],6.04 min and 5.45 min and 12.03 min and 5.18 min and 7.71 min and 8.81 min and 4.23 min and 5.86 min and 2.55 min and 8.52 min and 5.62 min
same,REM Sleep Latency,[6]; [9],102.43 min and 56.83 min and 56.59 min and 96.4 min and 61.69 min and 93.4 min and 72.26 min and 86.41 min and 58.92 min and 73.3 min and 61.33 min
same,REM Sleep Mean of a Single Episode,[6]; [9],1.51 min and 1.816 min and 1.718 min and 1.295 min and 1.542 min and 0.978 min and 1.05 min and 1.465 min and 0.85 min and 2.13 min and 1.405 min
same,REM Sleep Number (episodes),[6]; [9],4 episodes (6×) and 3 episodes (2×) and 7 episodes and 5 episodes and 9 episodes
same,Slow Wave Sleep Mean of a Single Episode,[6]; [9],6.49 min and 7.42 min and 3.11 min and 5.53 min and 4.3 min and 5.15 min and 4.39 min and 4.98 min and 6.77 min and 5.18 min and 6.45 min
same,Slow Wave Sleep Number (episodes),[6]; [9],9 episodes and 12 episodes and 27 episodes and 19 episodes and 23 episodes (2×) and 20 episodes and 21 episodes and 14 episodes and 17 episodes and 13 episodes
same,Wakefulness Mean of a Single Episode,[6]; [9],12.83 min and 5.92 min and 4.03 min and 3.66 min and 3.05 min and 4.00 min and 3.79 min and 2.69 min and 5.5 min and 5.71 min and 6.02 min
same,Wakefulness Number (episodes),[6]; [9],9 episodes and 12 episodes and 20 episodes and 19 episodes and 24 episodes and 17 episodes and 22 episodes and 23 episodes and 15 episodes (2×) and 11 episodes
